Results reported in US11352354B2, “Substituted penta-fused hexa-heterocyclic compounds, preparation method therefor, drug combination and use thereof” (Xiamen University, priority 2017, dated 2022).
Marks after values point to notes of the source that are not given here.

What was measured:
[1] = test system: JeKo-1 cells; experiment: Tumor cell growth inhibition by MTS method, JeKo-1; format: cell-based; conditions: 5 days of culture; for inhibition at 10 µM: read-out: cell growth inhibition rate of compounds at 10 μM
Procedure: III. Determination of IC50 Value of Compound for Inhibiting Tumor Cell Growth by MTS Method
1. Cell plating: cells in logarithmic growth phase were counted and inoculated in a 96-well plate (20000 cells per well).
2. Administrating agent to cell: 10 mM compound mother solution in DMSO was subjected to 3 fold-gradient dilution, to set 8 concentrations, which were then added to various wells, with three replicates for each concentration, and three blank wells (only culture medium) and three negative controls (containing 0.1% DMSO) on each plate.
3. […] The OD value at 490 nm was measured with microplate reader OD490. The cell growth inhibition rate was calculated by the following formula: Cell growth inhibition rate %=1−(ODexperimental group−ODblank group)/(ODnegative group−ODblank group)×100%
The semi-inhibitory concentration IC50 of the compound acting on cell growth was calculated using GradPad Prism 5 software according to the measured cell growth inhibition rate.
In the following table it lists the IC50 value or the inhibition rates of some compounds at 10 μM against JeKo-1 cells

[2] = test system: MDA-MB-231 cells; experiment: Vacuolation of MDA-MB-231 cells caused by inhibition of compounds on PIKfyve (microscopy); format: cell-based; conditions: MDA-MB-231 cells
Source text: I. Determination of Vacuolation of MDA-MB-231 Cells Caused by Inhibition of Compounds on PIKfyve
When the activity of pikfyve kinase is inhibited, vacuoles will be produced in cytoplasm. By observing the number of vacuoles under a microscope, the ability of compounds to inhibit the activity of pikfyve kinase can be known.
1. Cell plating: cells in logarithmic growth phase were made into a single cell suspension, counted with a cell counter and diluted to a cell concentration of about 2×10^5/mL. Then, the cells were inoculated into a 12-well plate, and cultured in a 37° C., 5% CO2 incubator.
3. Vacuolation test: after 24 and 48 hours of culture, photos were taken under an […] to observe the degree of vacuolation.
(In the table, “+” represents the degree of vacuolation; more “+” indicates more obvious vacuolation; “−” represents no vacuolation)

[3] = biological target: PIKfyve protein (Homo sapiens (Human), UniProt Q9Y2I7); experiment: Dissociation equilibrium constant (Kd) of compound and PIKfyve protein, DiscoverX KINOMEscan; format: binding; conditions: eleven 3-fold dilutions, curve fitting
Procedure: II. Determination of Dissociation Equilibrium Constant (Kd Value) of Compound and PIKfyve Protein
The Kd value was determined by DiscoverX's KINOMEscan™ technology according to the following steps:
1. Preparation of magnetic beads: biotin-labeled small molecule ligand and avidin-coated magnetic beads were allowed to interact at room temperature for 30 minutes, and then added with excess biotin, followed by washing with a blocking solution (1% BSA, 0.05% Tween 20, 1 mM DTT) to remove unbound ligand.
2. Binding reaction: in a 384 plate, 0.02 mL system, DNA-labeled protein, small molecule ligand-bound magnetic beads, and different concentrations of compound to be tested were mixed in a reaction solution (0.17×PBS, 0.05% Tween 20, 6 mM DTT) at room temperature with shaking for 1 hr, to which was added an eluant (1×PBS, 0.05% Tween 20) for elution. Magnetic beads were resuspended by an eluant (1×PBS, 0.05% Tween 20, 0.5 μM non-biotin-labeled small molecule ligand), and shaken at room temperature for 30 min before separating out the eluant.
3. Determination of Kd value: the content of protein in the above eluate was determined by qPCR. Eleven 3-fold dilution concentrations were determined for the compound to be tested, with 3 DMSO controls for each concentration, and the Kd value was obtained by curve fitting.

PIKfyve protein, sequence (Q9Y2I7 whole entry): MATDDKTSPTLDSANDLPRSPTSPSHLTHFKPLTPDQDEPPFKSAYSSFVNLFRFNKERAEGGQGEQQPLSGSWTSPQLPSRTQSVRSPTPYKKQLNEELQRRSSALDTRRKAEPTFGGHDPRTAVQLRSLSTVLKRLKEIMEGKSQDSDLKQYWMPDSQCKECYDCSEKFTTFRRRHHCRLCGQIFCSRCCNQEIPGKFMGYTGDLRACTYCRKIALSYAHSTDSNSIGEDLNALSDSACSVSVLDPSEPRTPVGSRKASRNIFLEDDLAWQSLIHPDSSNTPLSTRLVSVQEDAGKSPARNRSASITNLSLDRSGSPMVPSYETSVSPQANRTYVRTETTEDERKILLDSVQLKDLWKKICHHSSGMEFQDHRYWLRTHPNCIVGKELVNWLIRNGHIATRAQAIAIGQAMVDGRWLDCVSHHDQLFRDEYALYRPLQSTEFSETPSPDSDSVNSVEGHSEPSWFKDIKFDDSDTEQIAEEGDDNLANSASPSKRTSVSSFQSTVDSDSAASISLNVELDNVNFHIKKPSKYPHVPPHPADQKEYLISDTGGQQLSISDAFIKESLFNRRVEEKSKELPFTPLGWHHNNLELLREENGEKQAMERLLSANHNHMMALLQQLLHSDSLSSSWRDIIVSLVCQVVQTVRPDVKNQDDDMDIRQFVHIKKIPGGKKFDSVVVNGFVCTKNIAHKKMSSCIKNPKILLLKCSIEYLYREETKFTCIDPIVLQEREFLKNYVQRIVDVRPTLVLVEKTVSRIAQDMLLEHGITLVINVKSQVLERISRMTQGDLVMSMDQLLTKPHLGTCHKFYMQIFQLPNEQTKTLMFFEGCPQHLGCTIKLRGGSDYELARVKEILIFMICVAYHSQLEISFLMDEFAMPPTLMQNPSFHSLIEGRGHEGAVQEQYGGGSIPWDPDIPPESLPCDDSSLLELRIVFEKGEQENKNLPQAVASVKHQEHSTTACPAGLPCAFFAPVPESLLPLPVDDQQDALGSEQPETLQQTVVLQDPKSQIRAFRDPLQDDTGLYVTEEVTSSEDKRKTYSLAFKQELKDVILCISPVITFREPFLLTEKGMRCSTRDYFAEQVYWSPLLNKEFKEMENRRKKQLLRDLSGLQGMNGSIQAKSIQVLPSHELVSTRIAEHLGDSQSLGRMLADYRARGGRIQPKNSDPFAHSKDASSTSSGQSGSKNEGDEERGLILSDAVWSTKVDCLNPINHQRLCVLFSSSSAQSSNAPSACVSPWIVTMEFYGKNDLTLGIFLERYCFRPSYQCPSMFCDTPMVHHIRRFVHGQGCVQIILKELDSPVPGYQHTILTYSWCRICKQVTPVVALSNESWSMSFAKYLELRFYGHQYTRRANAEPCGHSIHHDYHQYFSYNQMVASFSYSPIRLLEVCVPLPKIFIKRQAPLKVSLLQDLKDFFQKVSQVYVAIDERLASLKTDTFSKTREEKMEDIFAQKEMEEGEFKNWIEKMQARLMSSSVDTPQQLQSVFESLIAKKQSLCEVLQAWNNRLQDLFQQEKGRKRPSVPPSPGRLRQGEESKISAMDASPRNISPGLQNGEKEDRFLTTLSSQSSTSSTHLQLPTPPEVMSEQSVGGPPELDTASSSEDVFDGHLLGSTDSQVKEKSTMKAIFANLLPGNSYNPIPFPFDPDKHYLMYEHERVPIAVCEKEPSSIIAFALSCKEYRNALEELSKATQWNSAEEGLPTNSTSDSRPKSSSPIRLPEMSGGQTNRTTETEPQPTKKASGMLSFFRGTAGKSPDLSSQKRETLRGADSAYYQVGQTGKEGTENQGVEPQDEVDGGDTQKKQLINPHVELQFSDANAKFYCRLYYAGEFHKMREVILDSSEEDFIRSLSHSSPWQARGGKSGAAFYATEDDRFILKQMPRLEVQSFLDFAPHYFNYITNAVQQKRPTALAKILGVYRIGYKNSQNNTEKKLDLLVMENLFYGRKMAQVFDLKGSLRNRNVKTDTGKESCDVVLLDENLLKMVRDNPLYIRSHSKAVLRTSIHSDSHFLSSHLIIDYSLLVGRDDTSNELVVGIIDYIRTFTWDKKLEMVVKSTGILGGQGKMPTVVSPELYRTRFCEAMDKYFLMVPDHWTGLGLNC

| Compound | IC50 ([1]; Homo sapiens, JeKo-1, 120 h) | Kd [3] | IC50 [1] | degree of vacuolation, 1 μM, 24 h [2] | degree of vacuolation, 1 μM, 48 h [2] | degree of vacuolation, 10 μM, 24 h [2] | degree of vacuolation, 10 μM, 48 h [2] | cell growth inhibition rate of compounds at 10 μM [1] | inhibition at 10 µM ([1]; Homo sapiens, JeKo-1, 120 h) |
| --- | --- | --- | --- | --- | --- | --- | --- | --- | --- |
| Cc1ccc(C(=O)Nc2cccc(C(F)(F)F)c2)cc1Nc1cc(-c2cccnc2)nc2c1ccn2C [I-b-4] |  |  | 1.33 µM | − | − |  |  |  |  |
| Cc1ccc(C(=O)Nc2cccc(C(F)(F)F)c2)cc1Nc1nc(-c2cccnc2)cn2ccnc12 [VI-a-6] |  |  |  | − |  | − |  | 11.3%^a |  |
| Cc1ccc(Nc2nc(-c3cccc(NC(=O)c4ccc(N)nc4)c3)nc3ccsc23)cn1 [VII-a-16] | 0.824 µM |  |  | + | + | + | + |  |  |
| O=C(Nc1cccc(Nc2cc(-c3ccncc3)nc3sccc23)c1)c1cccc(C(F)(F)F)c1 [VIII-a-2] | 3.26 µM |  |  | ++ | ++ | ++ | ++ |  |  |
| Cc1ccc(C(=O)Nc2cccc(C(F)(F)F)c2)cc1Nc1nc(-c2cccnc2)nc2[nH]ccc12 [II-a-2] |  |  |  | + | + | + | + |  | 43.4% |
| Cc1ccc(C(=O)Nc2cccc(C(F)(F)F)c2)cc1Nc1cc(-c2ccncc2)nc2sccc12 [VIII-a-8] | 2 µM |  |  | − | ++ | − | ++ |  |  |
| Cc1ccc(C(=O)Nc2cccc(C(F)(F)F)c2)cc1Nc1nc(-c2cccnc2)cn2ccnc12 [VI-a-2] |  |  |  | + | + | + | + | 38.6%^a |  |
| Cc1ccc(NC(=O)c2cccc(C(F)(F)F)c2)cc1Nc1nc(-c2cccnc2)nc2c1ncn2C [IV-b-7] |  |  |  | + | + | + | + |  | 19.1% |
| Cc1ccc(C(=O)Nc2cccc(C(F)(F)F)c2)cc1Nc1cc(-c2cccnc2)nc2[nH]ccc12 [I-a-20] | 2.54 µM |  |  | +++ | +++ | ++++ | ++++ |  |  |
| Cc1ccc(C(=O)Nc2cccc(C(F)(F)F)c2)cc1Nc1nc(-c2cccnc2)nc2[nH]cnc12 [IV-a-3] |  |  |  |  | + |  | + |  | 16.2% |

Second part, led by results:

| IC50 ([1]; Homo sapiens, JeKo-1, 120 h) | Kd [3] | IC50 [1] | Compound | degree of vacuolation, 1 μM, 24 h [2] | degree of vacuolation, 1 μM, 48 h [2] | degree of vacuolation, 10 μM, 24 h [2] | degree of vacuolation, 10 μM, 48 h [2] | cell growth inhibition rate of compounds at 10 μM [1] | inhibition at 10 µM ([1]; Homo sapiens, JeKo-1, 120 h) |
| --- | --- | --- | --- | --- | --- | --- | --- | --- | --- |
| 1.88 µM |  |  | Cc1ccc(NC(=O)c2cccc(C(F)(F)F)c2)cc1Nc1nc(-c2cccnc2)nc2c1cnn2C [III-b-10] | − | + | − | + |  |  |
|  | > 30 µM |  | Cc1ccc(C(=O)Nc2cccc(OC(F)(F)F)c2)cc1Nc1nc(-c2ccco2)c2[nH]ccc2n1 [V-c-62] |  |  |  |  |  |  |
|  | > 30 µM |  | Cc1ccc(NC(=O)c2cccc(C(F)(F)F)c2)cc1Nc1nc(-c2cccs2)c2[nH]ccc2n1 [V-c-43] |  |  |  |  |  |  |
|  | > 30 µM |  | Cc1ccc(NC(=O)c2cccc(C(F)(F)F)c2)cc1Nc1nc(-c2ccco2)c2[nH]ccc2n1 [V-c-42] |  |  |  |  |  |  |
|  | > 30 µM |  | Cc1ccc(NC(=O)c2cccc(C(F)(F)F)c2)cc1Nc1nc(-c2ccccc2)c2[nH]ccc2n1 [V-c-41] |  |  |  |  |  |  |
| 1.1 µM |  |  | Cc1ccc(NC(=O)c2cccc(C(F)(F)F)c2)cc1Nc1cc(-c2cccnc2)c2cc[nH]c2n1 [I-c-12] | +++ | +++ | +++ | +++ |  |  |
